# From patent US6063803A, “Octahydropyrrolo-[3,4-c]carbazoles useful as analgesic agents” (Ortho-McNeil Pharmaceutical, Inc., priority 1999, dated 2000)
# Target: T1, α2-adrenergic receptor (Rattus norvegicus, UniProt P22909)
# T1 construct: aliquots of the synaptic membrane fraction, the ligand; from tissue; host or cells: cerebral cortex synaptic membranes of male Wistar rats
# T1 sequence (P22909 1-465): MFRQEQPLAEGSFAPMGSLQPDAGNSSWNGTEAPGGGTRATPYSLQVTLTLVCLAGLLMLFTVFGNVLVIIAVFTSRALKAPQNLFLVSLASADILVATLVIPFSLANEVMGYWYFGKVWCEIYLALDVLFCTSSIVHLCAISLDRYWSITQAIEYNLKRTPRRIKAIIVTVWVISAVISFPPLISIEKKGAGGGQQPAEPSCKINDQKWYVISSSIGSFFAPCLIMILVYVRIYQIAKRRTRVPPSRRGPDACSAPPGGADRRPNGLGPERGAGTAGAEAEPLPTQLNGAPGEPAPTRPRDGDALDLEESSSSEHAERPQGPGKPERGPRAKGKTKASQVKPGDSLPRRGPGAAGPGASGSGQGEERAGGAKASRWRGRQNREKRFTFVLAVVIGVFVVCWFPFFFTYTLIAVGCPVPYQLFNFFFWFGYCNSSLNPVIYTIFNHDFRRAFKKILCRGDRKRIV
# Assay: α2-adrenergic receptor binding (3H-para-aminoclonidine, rat cortex synaptic membranes)
# Set-up: species or system rat (Wistar)
# Conditions: 25° C., 20 min
# Description: The α2 -adrenergic activity of the compounds was determined by the following in vitro assay. Male, Wistar rats (150-250 g, VAF, Charles River, Kingston, N.Y.) were sacrificed by cervical dislocation and their brains removed and immediately placed in ice cold HEPES buffered sucrose. The cortex was dissected out and homogenized in 20 volumes of HEPES sucrose in a Teflon®-glass homogenizer. The homogenate was centrifuged at 1000×g for 10 min, and the resulting supernatant centrifuged at 42,000×g for 10 min. The resulting pellet was resuspended in 30 volumes of 3 mM potassium phosphate buffer, pH 7.5, preincubated at 25° C. for 30 min and recentrifuged. The resulting pellet was resuspended as described above and used for the receptor binding assay. Incubation was performed in test tubes containing phosphate buffer, 2.5 mM MgCl2, aliquots of the synaptic membrane fraction, the ligand ^3 H-para-aminoclonidine and test drug at 25° C. for 20 min. The incubation was terminated by filtration of the tube contents through glass fiber filter sheets. The sheets were washed with 10 mM HEPES buffer and the adhering radioactivity was quantified by liquid scintillation spectrometry.
# Dose-response data are analyzed with LIGAND, a nonlinear curve fitting program designed specifically for the analysis of ligand binding data. […]
smiles,measurement,value
"CN1CC2CCc3[nH]c4ccccc4c3C2C1 (single isomer, unassigned) [Compound 58]",Ki,9.4 nM
